Results as given in the NIST ThermoML archive (doi:10.1016/j.jct.2007.04.005).

Assay: xn = mol fraction of the nth substance listed
Details: 308.15 K, Liquid

CCCCCCCCC [nonane] + C1CCCCC1
mass density [kg/m3]
Details	x2 = 0	x2 = 0.09303	x2 = 0.2009	x2 = 0.3051	x2 = 0.417	x2 = 0.512	x2 = 0.5996	x2 = 0.7052	x2 = 0.7993	x2 = 0.9039
18340 kPa	–	–	–	–	–	–	–	752.9	760	769.1
20370 kPa	721.7	724.7	728.6	732.8	737.8	742.4	747.6	754.4	761.5	770.6
22390 kPa	723.1	726.1	730.1	734.3	739.3	743.9	749.1	755.9	763	772.1
24420 kPa	724.5	727.5	731.5	735.7	740.7	745.3	750.5	757.4	764.4	773.6
26450 kPa	725.9	728.9	732.9	737.1	742.1	746.8	751.9	758.8	765.8	775.1
28470 kPa	727.2	730.3	734.2	738.4	743.5	748.1	753.3	760.2	767.2	776.5
29490 kPa	727.8	730.9	734.9	739.1	744.1	748.7	754	760.9	767.9	777.2
30500 kPa	728.5	731.6	735.6	739.8	744.8	749.4	754.7	761.6	768.6	777.9
32530 kPa	729.8	732.9	736.9	741.1	746.1	750.8	756	762.9	770	779.3
34550 kPa	731.1	734.2	738.2	742.4	747.4	752	757.3	764.3	771.3	780.6
36580 kPa	732.4	735.4	739.5	743.7	748.7	753.3	758.6	765.6	772.6	781.9
38600 kPa	733.6	736.7	740.8	745	750	754.6	759.9	766.9	773.9	783.3
39620 kPa	734.3	737.4	741.4	745.6	750.6	755.3	760.6	767.5	774.5	783.9
